{"source": "paper PMC5707495", "about": "“Systematic re-evaluation of the bis(2-hydroxyethyl)disulfide (HEDS) assay reveals an alternative mechanism and activity of glutaredoxins” (Chemical Science, 2015)", "key": {"ScGrx7": {"biological_target": "T1, ScGrx7 (Saccharomyces cerevisiae, UniProt P38068)", "T1 construct": "gene GRX7; recombinant, N-terminal MRGS(H)6 tag kept, altered stop codon; E. coli XL1-Blue; non-covalent dimer; monothiol, one Cys per subunit", "T1 sequence (P38068 37-203 limits assumed)": "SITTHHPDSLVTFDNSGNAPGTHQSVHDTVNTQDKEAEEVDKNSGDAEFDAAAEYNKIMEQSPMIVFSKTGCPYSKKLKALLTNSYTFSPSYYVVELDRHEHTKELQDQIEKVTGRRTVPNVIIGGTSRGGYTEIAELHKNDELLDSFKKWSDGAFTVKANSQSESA", "experiment": "HEDS assay coupled to glutathione reductase, NADPH […] nm; Km replot and Dixon plot", "format": "biochemical"}, "PfGrx": {"biological_target": "T2, PfGrx (Plasmodium falciparum, UniProt Q9NLB2)", "T2 construct": "gene PF3D7_0306300; dithiol Grx with Cys29 and Cys32 (CPYC motif) and Cys88 (GGC motif)", "T2 sequence (Q9NLB2 1-111)": "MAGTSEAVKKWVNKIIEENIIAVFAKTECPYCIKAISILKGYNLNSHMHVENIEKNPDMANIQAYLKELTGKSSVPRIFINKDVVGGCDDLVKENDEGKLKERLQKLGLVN", "experiment": "HEDS assay coupled to glutathione reductase, NADPH […] nm", "format": "biochemical", "conditions": "co-substrate GSH; sequential kinetics; pH 8.0, 25 °C"}}, "data": [{"smiles": "OCCS", "note": "[2-ME]", "values": [{"measurement": "Ki", "setting": "ScGrx7", "value": 180, "unit": "µM"}]}, {"smiles": "OCCSSCCO", "note": "[HEDS, bis(2-hydroxyethyl)disulfide]", "values": [{"measurement": "HEDS assay coupled to glutathione reductase, NADPH 340 nm", "setting": "PfGrx", "value": "HEDS assays with PfGrx yielded sequential kinetic patterns"}]}]}
